According to US11447486B2, “2-amino-benzimidazole derivatives and their use as 5-lipoxygenase and/or prostaglandin E synthase inhibitors” (INSTITUT PASTEUR KOREA, priority 2014, dated 2022):

Columns and labels:
human 5-LOX = molecular target: T1, human 5-LOX (Homo sapiens, UniProt P09917); test: 5-LOX enzyme activity, fluorescence method (5-HPETE, H2DCFDA); assay type: biochemical; conditions: read-out: 5-LO (IC50)
T1 construct: purchased Cayman 60402; host or cells: insect cells (lysate)
T1 sequence (P09917 1-674): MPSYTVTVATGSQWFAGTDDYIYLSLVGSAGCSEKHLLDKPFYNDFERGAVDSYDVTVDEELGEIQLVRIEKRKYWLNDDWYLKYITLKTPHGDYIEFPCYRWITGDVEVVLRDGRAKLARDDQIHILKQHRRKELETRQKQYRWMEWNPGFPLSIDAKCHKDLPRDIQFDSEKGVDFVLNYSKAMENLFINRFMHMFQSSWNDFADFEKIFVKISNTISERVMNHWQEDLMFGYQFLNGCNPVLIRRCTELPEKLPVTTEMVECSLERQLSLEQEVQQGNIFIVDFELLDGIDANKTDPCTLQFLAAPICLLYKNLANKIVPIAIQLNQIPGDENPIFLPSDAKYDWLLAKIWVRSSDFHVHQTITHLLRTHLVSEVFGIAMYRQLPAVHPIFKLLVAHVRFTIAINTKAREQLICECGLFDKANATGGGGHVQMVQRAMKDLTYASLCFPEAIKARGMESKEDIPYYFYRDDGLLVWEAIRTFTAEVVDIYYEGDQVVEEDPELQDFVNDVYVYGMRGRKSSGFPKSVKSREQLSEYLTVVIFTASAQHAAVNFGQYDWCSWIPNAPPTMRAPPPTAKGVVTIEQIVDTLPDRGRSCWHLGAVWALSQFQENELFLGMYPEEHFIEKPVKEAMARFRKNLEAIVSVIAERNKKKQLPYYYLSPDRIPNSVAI
Outline: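 Compound (0.5 nM to 10 uM) pre-incubated 5 min with enzyme; reaction started with ATP (100 uM final) and arachidonic acid (3 uM final). All steps at room temperature, fluorescence read-out.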

Rat whole blood (RWB) = test: LTB4 secretion assay in RWB (rat whole blood); assay type: cell-based; conditions: Rattus norvegicus
Outline: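 Heparinized blood from male Sprague Dawley rats (6-9 weeks) diluted 1:1 in RPMI, pre-incubated 15 min at 37 °C with compound (2.5 nM to 50 uM). Stimulated with 10 uM calcium ionophore A23187 for 10 min at 37 °C, stopped with ice-cold PBS; LTB4 in supernatant quantified by EIA.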

[1] = system: Rat basophilic leukemia (RBL) cells; test: LTB4 secretion assay in RBL (rat basophilic leukemia cells); assay type: cell-based; conditions: Rattus norvegicus, RBL
Outline: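 Cells seeded 2×10^4/well the day before, then pre-incubated 15 min at 37 °C in EMEM/0.5% FBS with compound (5 nM to 100 uM). Stimulation with 2.5 uM arachidonic acid plus 5 uM A23187 (final) for 10 min at 37 °C; LTB4 in supernatant quantified by EIA.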

Row | IC50 (human 5-LOX) | EC50 (Rat whole blood (RWB)) | EC50 [1] | SMILES
1 | < 1 µM | > 20 µM | > 20 µM | Nc1ccc2nc(NCc3ccc(Oc4ncccn4)cc3)[nH]c2c1 [Compound 154]
2 | < 1 µM | > 20 µM | < 10 µM | CN(C)c1nc2cc(NCc3ccc(Oc4ccc(OC(F)(F)F)cc4)cc3)ccc2[nH]1 [Compound 126]
3 | 1 to 10 µM | < 10 µM | < 10 µM | Cc1cccnc1Nc1ccc2nc(NCc3ccc(Oc4ncc(Cl)cn4)cc3)n(C)c2c1 [Compound 464]
4 | < 1 µM | < 10 µM | < 10 µM | Nc1nc2ccc(NC3COC3)cc2n1Cc1ccc(Oc2ccc(Cl)cc2)cc1 [Compound 231]
5 | 1 to 10 µM | < 10 µM | < 10 µM | FC(F)(F)CCNc1nc2ccc(NC3COC3)cc2n1Cc1ccc(Oc2ccc(Cl)cc2)cc1 [Compound 279]
6 | < 1 µM | < 10 µM | < 10 µM | CN(C)c1nc2cc(NCc3ccc(Oc4ccc(Cl)cc4)cc3)ccc2[nH]1 [Compound 123]
7 | < 1 µM | < 10 µM | < 10 µM | Nc1ccc2[nH]c(NCc3ccc(Oc4ccc(Cl)nc4)cc3)nc2c1 [Compound 136]
8 | < 1 µM | < 10 µM | < 10 µM | Nc1ccc2[nH]c(N3CCCC3c3ccc(Oc4ccc(Cl)cc4)cc3)nc2c1 (stereo not drawn) [Compound 145]
9 | < 1 µM | < 10 µM | < 10 µM | Cn1c(NCc2ccc(Oc3ccc(Cl)cn3)cc2)nc2ccc(Nc3cc[nH]n3)cc21 [Compound 449]
10 | < 1 µM | < 10 µM | < 10 µM | Nc1ccc2nc(N)n(Cc3ccc(Oc4ccc(C(F)(F)F)cn4)cc3)c2c1 [Compound 243]
11 | < 1 µM | < 10 µM | 10 to 20 µM | Cn1c(NCc2ccc(Oc3cnc(N)nc3)cc2)nc2ccc(N)cc21 [Compound 360]
12 | < 1 µM | < 10 µM | < 10 µM | CCn1c(NCc2ccc(Oc3ccc(Cl)cn3)cc2)nc2ccc(NC3COC3)cc21 [Compound 270]
13 | < 1 µM | < 10 µM | < 10 µM | Cn1nc(Nc2ccc3nc(NCc4ccc(Oc5ncc(Cl)cn5)cc4)n(C)c3c2)cc1C(F)F [Compound 532]
14 | < 1 µM | < 10 µM | 10 to 20 µM | Cn1c(NCc2ccc(Oc3ncc(Br)cn3)cc2)nc2ccc(NC3COC3)cc21 [Compound 362]
15 | < 1 µM | > 20 µM | < 10 µM | CCC(Nc1ccc2[nH]c(N(C)C)nc2c1)c1ccc(Oc2ccc(Cl)cc2)cc1 (stereo not drawn) [Compound 128]
16 | < 1 µM | < 10 µM | < 10 µM | Cc1[nH]nc(Nc2ccc3nc(NCc4ccc(Oc5ncc(Cl)cn5)cc4)n(C)c3c2)c1Cl [Compound 481]
17 | < 1 µM | < 10 µM | < 10 µM | CC(C)(C)Nc1nc2ccc(N)cc2n1CCOc1ccc(OC(F)(F)F)cc1 [Compound 65]
18 | < 1 µM | < 10 µM | < 10 µM | CCC(Nc1nc2ccc(Nc3cc(C)[nH]n3)cc2n1C)c1ccc(Oc2ncc(C(F)(F)F)cn2)cc1 (stereo not drawn) [Compound 534]
19 | > 10 µM | < 10 µM | < 10 µM | Cn1c(NCc2ccc(Oc3ccc(Cl)cc3)cc2)nc2ccc(N3CC(F)(F)C3)cc21 [Compound 193]
20 | < 1 µM | < 10 µM | < 10 µM | Cc1cc(Nc2ccc3nc(NCc4ccc(Oc5ncc(Cl)cn5)cc4)n(C)c3c2)nn1C [Compound 465]
21 | < 1 µM | < 10 µM | < 10 µM | CNc1nc2ccc(N)cc2n1Cc1ccc(Oc2ccc(Cl)cn2)cc1 [Compound 229]

Row | IC50 (human 5-LOX) | EC50 (Rat whole blood (RWB)) | EC50 [1] | SMILES
22 | < 1 µM | < 10 µM | < 10 µM | Cn1c(NCc2c(F)cc(Oc3ncc(Cl)cn3)cc2F)nc2ccc(NC3COC3)cc21 [Compound 431]
23 | < 1 µM | < 10 µM | < 10 µM | CCC(Nc1nc2ccc(Nc3cc(C(C)C)[nH]n3)cc2n1C)c1ccc(Oc2ncc(Cl)cn2)cc1 (stereo not drawn) [Compound 529]
24 | < 1 µM | < 10 µM | < 10 µM | CCn1c(NCc2ccc(Oc3ncc(C(F)(F)F)cn3)cc2)nc2ccc(Nc3cc(C)[nH]n3)cc21 [Compound 531]
25 | < 1 µM | 10 to 20 µM | 10 to 20 µM | Cn1c(NCc2ccc(Oc3ncc(F)cn3)cc2)nc2ccc(NC3COC3)cc21 [Compound 337]
26 | < 1 µM | < 10 µM | < 10 µM | CCn1c(NCc2ccc(Oc3ncc(Cl)cn3)cc2F)nc2ccc(Nc3cc(C)[nH]n3)cc21 [Compound 536]
27 | < 1 µM | < 10 µM | < 10 µM | Nc1ccc2[nH]c(NCc3ccc(Oc4ccc(OC(F)(F)F)cc4)cc3)nc2c1 [Compound 88]
28 | < 1 µM | 10 to 20 µM | > 20 µM | Cn1c(NCc2ccc(OCc3ncco3)cc2)nc2ccc(NC3COC3)cc21 [Compound 343]
29 | < 1 µM | < 10 µM | < 10 µM | Cc1cc(Nc2ccc3nc(NCc4ccc(Oc5ncc(OC(F)(F)F)cn5)cc4)n(C)c3c2)n[nH]1 [Compound 482]
30 | < 1 µM | < 10 µM | < 10 µM | c1ccc(Oc2ccc(CNc3nc4cc(NC5CCCC5)ccc4[nH]3)cc2)cc1 [Compound 97]
31 | < 1 µM | < 10 µM | < 10 µM | Cn1c(NCc2ccc(Oc3ncc(Cl)cn3)cc2)nc2ccc(N)cc21 [Compound 288]
32 | < 1 µM | < 10 µM | < 10 µM | CCC(Nc1nc2ccc(NC3COC3)cc2n1C)c1ccc(Oc2ncc(C(F)(F)F)cn2)cc1 (stereo not drawn) [Compound 547]
33 | < 1 µM | < 10 µM | < 10 µM | Cc1csc(Nc2ccc3nc(NCc4ccc(Oc5ncc(Cl)cn5)cc4)n(C)c3c2)n1 [Compound 501]
34 | < 1 µM | > 20 µM | < 10 µM | CC(Nc1ccc2nc(N(C)C)[nH]c2c1)c1ccc(Oc2ccc(OC(F)(F)F)cc2)nc1 (stereo not drawn) [Compound 150]
35 | < 1 µM | < 10 µM | < 10 µM | COc1cc(Oc2ccc(Cl)cn2)ccc1CNc1nc2ccc(NC3COC3)cc2n1C [Compound 328]
36 | < 1 µM | < 10 µM | < 10 µM | CCC(Nc1nc2ccc(NC3COC3)cc2n1C)c1ccc(Oc2ccc(C(F)(F)F)cn2)cc1F (stereo not drawn) [Compound 550]
37 | < 1 µM | < 10 µM | < 10 µM | Cc1cnc(Nc2ccc3nc(NCc4ccc(Oc5ncc(Cl)cn5)cc4)n(C)c3c2)s1 [Compound 492]
38 | < 1 µM | < 10 µM | < 10 µM | Cn1c(NCc2ccc(Oc3ccc(Cl)cn3)c(F)c2)nc2ccc(NC3COC3)cc21 [Compound 268]
39 | < 1 µM | > 20 µM | < 10 µM | CC(C)(O)Cn1c(NCc2ccc(Oc3ccc(Cl)cn3)cc2)nc2ccc(N)cc21 [Compound 203]
40 | < 1 µM | < 10 µM | < 10 µM | Clc1ccc(Oc2ccc(CNc3nc4cc(NCc5ccccn5)ccc4[nH]3)cc2)cc1 [Compound 149]
41 | < 1 µM | < 10 µM | 10 to 20 µM | Cn1c(NCc2ccc(Oc3ccc(C#N)cn3)cc2)nc2ccc(NC3COC3)cc21 [Compound 351]
42 | < 1 µM | < 10 µM | < 10 µM | Clc1ccc(Oc2ccc(CNc3nc4cc(NC5COC5)ccc4[nH]3)cc2)cc1 [Compound 125]
